# In patent US10406207B2, “Peptide conjugates of GLP-1 receptor agonists and gastrin and their use” (priority 2010, dated 2019):
# Where two headings read alike, the source gives them in different places. Square brackets hold non-standard residues; d marks the D form. Peptide text beside a SMILES is read from it. Orn = NCCC[C@H](N)C(=O)O; AEEA = NCCOCCOCC(=O)O
# Experiments:
# human GLP-1 R = target: T1, human GLP-1 R (Homo sapiens, UniProt P43220); assay: Human GLP-1 receptor efficacy assay (cAMP induction, FlashPlate); assay type: cell-based; conditions: Table 2; read-out: hGLP-1 R EC50
# T1 construct: expressed in transfected cells
# Experimental: On the day of analysis, growth medium was removed and the cells were washed once with 200 μl Tyrode buffer [Tyrode's Salts (9.6 g/l), 10 mM HEPES, pH 7.4]. […] The reaction was stopped by addition of 25 μl 0.5 M HCl and incubated on ice for 60 min.
# human CCK-B R = target: T2, human CCK-B R (Homo sapiens, UniProt P32239); assay: Human CCK-B receptor efficacy assay (AlphaScreen SureFire p-ERK); assay type: cell-based; conditions: read-out: hCCK-B R EC50
# T2 construct: expressed in transfected cells
# T2 sequence (P32239 1-447): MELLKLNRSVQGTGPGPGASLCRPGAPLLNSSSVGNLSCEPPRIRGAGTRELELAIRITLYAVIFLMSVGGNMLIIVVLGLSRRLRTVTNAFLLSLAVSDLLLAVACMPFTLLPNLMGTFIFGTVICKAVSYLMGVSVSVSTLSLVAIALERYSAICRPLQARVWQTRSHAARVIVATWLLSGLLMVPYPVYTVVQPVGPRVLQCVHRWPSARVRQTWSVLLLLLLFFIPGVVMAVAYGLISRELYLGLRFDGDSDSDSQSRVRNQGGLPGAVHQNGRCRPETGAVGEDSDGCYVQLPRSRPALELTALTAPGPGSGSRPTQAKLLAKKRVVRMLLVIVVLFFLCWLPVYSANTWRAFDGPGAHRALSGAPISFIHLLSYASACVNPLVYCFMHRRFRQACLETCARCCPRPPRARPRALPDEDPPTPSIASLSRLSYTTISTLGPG
# Experimental: CCK-B Receptor (CCK-B R) Efficacy Assay:
# In vitro effects of peptide conjugates of the invention were estimated by measuring p-ERK (using the AlphaScreen™ SureFire p-ERK assay) in HEK293 cells stably expressing the human and mouse CCK-B R (high-affinity Gastrin receptor), respectively. The Gastrin receptor efficacy assays (AlphaScreen™ SureFire p-ERK assay) were performed as follows:
# The CCK-B R expressing cells in question were seeded at 20,000 cells/well in 100 μl growth medium [DMEM, 10% FCS, Penicillin (100 IU/ml), Streptomycin (100 μg/ml)] in a 96-well plate coated with poly-D-lysine. The cells were incubated in an incubator (37° C., 5% 002) for two days.
# The growth medium was changed to 80 μl of serum-free medium [DMEM, Penicillin (100 IU/ml), Streptomycin (100 μg/ml)] per well, and incubation of the cells was continued for 19 hours in the incubator (37° C., 5% CO2).
# After 19 hours, 20 μl of serum-free medium containing one of 5 different concentrations of peptide conjugate was added (performed in triplicate for each concentration), and the cells were incubated for 5 min. at room temperature. • 2. The stimulation medium was discarded by quickly turning the plate upside down, and 60 μl 1× lysis buffer (from the SureFire assay kit) was added per well. • 3. The plate was shaken on a plate-shaker for 5 min and then placed on ice. • 4. SureFire P-ERK assay: 4 μl of each supernatant was transferred to a 384 well proxiplate (Perkin Elmer). • 5. 4 μl of each of the two control lysates (unstimulated and stimulated) were added to the proxiplate in duplicate. • 6. […] 7 μl of the latter reaction buffer+activation buffer+beads per well were added in the proxiplate, the mix being resuspended carefully before addition to the wells. • 7. The plate was incubated for 2 hours in a dark box in a 22° C. incubator. • 8. The plate was analyzed on an Envision™ light-emission plate reader (Perkin-Elmer) using the appropriate reading program (Perkin-Elmer).
# T1 sequence (P43220 24-463): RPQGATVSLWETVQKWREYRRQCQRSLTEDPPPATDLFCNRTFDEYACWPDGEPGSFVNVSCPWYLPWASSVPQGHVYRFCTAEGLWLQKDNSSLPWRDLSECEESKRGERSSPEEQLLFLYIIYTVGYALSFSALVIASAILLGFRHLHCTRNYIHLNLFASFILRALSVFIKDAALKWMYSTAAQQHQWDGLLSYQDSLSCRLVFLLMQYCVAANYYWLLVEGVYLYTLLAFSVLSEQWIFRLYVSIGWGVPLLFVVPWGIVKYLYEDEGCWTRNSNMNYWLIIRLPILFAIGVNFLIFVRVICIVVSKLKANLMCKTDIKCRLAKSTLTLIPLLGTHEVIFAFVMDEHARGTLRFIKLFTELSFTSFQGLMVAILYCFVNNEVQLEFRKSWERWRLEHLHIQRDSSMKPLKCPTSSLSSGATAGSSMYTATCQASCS
SMILES,EC50 (human GLP-1 R) [nM],EC50 (human CCK-B R; Table 2) [nM],EC50 (human CCK-B R; Table 3) [nM]
"CC[C@H](C)[C@H](NC(=O)[C@H](Cc1ccccc1)NC(=O)[C@H](CC(C)C)NC(=O)[C@H](CCCNC(=N)N)NC(=O)[C@@H](NC(=O)[C@H](C)NC(=O)[C@H](CCC(=O)O)NC(=O)[C@H](CCC(=O)O)NC(=O)[C@H](CCC(=O)O)NC(=O)[C@H](CCSC)NC(=O)[C@H](CCC(N)=O)NC(=O)[C@H](CCCCN)NC(=O)[C@H](CO)NC(=O)[C@H](CC(C)C)NC(=O)[C@H](CC(=O)O)NC(=O)[C@H](CO)NC(=O)[C@@H](NC(=O)[C@H](Cc1ccccc1)NC(=O)[C@@H](NC(=O)CNC(=O)[C@H](CCC(=O)O)NC(=O)CNC(=O)[C@@H](N)Cc1c[nH]cn1)[C@@H](C)O)[C@@H](C)O)C(C)C)C(=O)N[C@@H](CCC(=O)O)C(=O)N[C@@H](Cc1ccccc1)C(=O)N[C@@H](CC(C)C)C(=O)N[C@@H](CCCCN)C(=O)N[C@@H](CC(N)=O)C(=O)NCCOCCOCC(=O)NCCOCCOCC(=O)N[C@@H](Cc1ccc(O)cc1)C(=O)NCC(=O)N[C@@H](Cc1c[nH]c2ccccc12)C(=O)N[C@@H](CC(C)C)C(=O)N[C@@H](CC(=O)O)C(=O)N[C@@H](Cc1ccccc1)C(N)=O [Compound 63, [Phe25]Exendin-4(1-28)-Peg3-Peg3-[Leu4]Gastrin6]",0.041,8.5,
"CC[C@H](C)[C@H](NC(=O)[C@H](Cc1ccccc1)NC(=O)[C@H](CC(C)C)NC(=O)[C@H](CCCN)NC(=O)[C@@H](NC(=O)[C@H](C)NC(=O)[C@H](CCC(=O)O)NC(=O)[C@H](CCC(=O)O)NC(=O)[C@H](CCC(=O)O)NC(=O)[C@H](CCSC)NC(=O)[C@H](CCC(N)=O)NC(=O)[C@H](CCCCN)NC(=O)[C@H](CO)NC(=O)[C@H](CC(C)C)NC(=O)[C@H](CC(=O)O)NC(=O)[C@H](CO)NC(=O)[C@@H](NC(=O)[C@H](Cc1ccccc1)NC(=O)[C@@H](NC(=O)CNC(=O)[C@H](CCC(=O)O)NC(=O)CNC(=O)[C@@H](N)Cc1c[nH]cn1)[C@@H](C)O)[C@@H](C)O)C(C)C)C(=O)N[C@@H](CCC(=O)O)C(=O)N[C@@H](Cc1c[nH]c2ccccc12)C(=O)N[C@@H](CC(C)C)C(=O)N[C@@H](CCCCN)C(=O)N[C@@H](CC(N)=O)C(=O)NCCOCCOCC(=O)NCCOCCOCC(=O)N[C@@H](Cc1ccc(O)cc1)C(=O)NCC(=O)N[C@@H](Cc1c[nH]c2ccccc12)C(=O)N[C@@H](CC(C)C)C(=O)N[C@@H](CC(=O)O)C(=O)N[C@@H](Cc1ccccc1)C(N)=O [Compound 66, [Orn20]Exendin-4(1-28)-Peg3-Peg3-[Leu4]Gastrin6] (H-HGEGTFTSDLSKQMEEEAV[Orn]LFIEWLKN[AEEA][AEEA]YGWLDF-NH2)",0.038,15,
"CC[C@H](C)[C@H](NC(=O)[C@H](Cc1ccccc1)NC(=O)[C@H](CC(C)C)NC(=O)[C@H](CCCNC(=N)N)NC(=O)[C@@H](NC(=O)[C@H](C)NC(=O)[C@H](CCC(=O)O)NC(=O)[C@H](CCCCN)NC(=O)[C@H](CCC(=O)O)NC(=O)[C@H](CCSC)NC(=O)[C@H](CCC(N)=O)NC(=O)[C@H](CCCCN)NC(=O)[C@H](CO)NC(=O)[C@H](CC(C)C)NC(=O)[C@H](CC(=O)O)NC(=O)[C@H](CO)NC(=O)[C@@H](NC(=O)[C@H](Cc1ccccc1)NC(=O)[C@@H](NC(=O)CNC(=O)[C@H](CCC(=O)O)NC(=O)CNC(=O)[C@@H](N)Cc1c[nH]cn1)[C@@H](C)O)[C@@H](C)O)C(C)C)C(=O)N[C@@H](CCC(=O)O)C(=O)N[C@@H](Cc1c[nH]c2ccccc12)C(=O)N[C@@H](CC(C)C)C(=O)N[C@@H](CCCCN)C(=O)N[C@@H](CC(N)=O)C(=O)NCCOCCOCC(=O)NCCOCCOCC(=O)N[C@@H](Cc1ccc(O)cc1)C(=O)NCC(=O)N[C@@H](Cc1c[nH]c2ccccc12)C(=O)N[C@@H](CC(C)C)C(=O)N[C@@H](CC(=O)O)C(=O)N[C@@H](Cc1ccccc1)C(N)=O [Compound 81, [Lys16]Exendin-4(1-28)-Peg3-Peg3-[Leu4]Gastrin6] (H-HGEGTFTSDLSKQMEKEAVRLFIEWLKN[AEEA][AEEA]YGWLDF-NH2)",0.032,15,
"CC[C@H](C)[C@H](NC(=O)[C@H](Cc1ccccc1)NC(=O)[C@H](CC(C)C)NC(=O)[C@H](CCCNC(=N)N)NC(=O)[C@@H](NC(=O)[C@H](C)NC(=O)[C@H](CCC(=O)O)NC(=O)[C@H](CCC(=O)O)NC(=O)[C@H](CCC(=O)O)NC(=O)[C@H](CC(C)C)NC(=O)[C@H](Cc1ccc(O)cc1)NC(=O)[C@H](CCCCN)NC(=O)[C@H](CO)NC(=O)[C@H](CC(C)C)NC(=O)[C@H](CCC(=O)O)NC(=O)[C@H](CO)NC(=O)[C@@H](NC(=O)[C@H](Cc1ccccc1)NC(=O)[C@@H](NC(=O)CNC(=O)[C@H](CCC(=O)O)NC(=O)CNC(=O)[C@@H](N)Cc1c[nH]cn1)[C@@H](C)O)[C@@H](C)O)C(C)C)C(=O)N[C@@H](CCC(=O)O)C(=O)N[C@@H](Cc1ccccc1)C(=O)N[C@@H](CC(C)C)C(=O)N[C@@H](CCCCN)C(=O)NCCOCCOCC(=O)NCCOCCOCC(=O)N[C@@H](Cc1ccc(O)cc1)C(=O)NCC(=O)N[C@@H](Cc1c[nH]c2ccccc12)C(=O)N[C@@H](CC(C)C)C(=O)N[C@@H](CC(=O)O)C(=O)N[C@@H](Cc1ccccc1)C(N)=O [Compound 88, [Glu9,Leu14,Phe25,Tyr13]Exendin-4(1-27)-Peg3-Peg3-[Leu4]Gastrin6] (H-HGEGTFTSELSKYLEEEAVRLFIEFLK[AEEA][AEEA]YGWLDF-NH2)",0.046,20,

# Now from value to compound:
EC50 (human GLP-1 R) [nM],EC50 (human CCK-B R; Table 2) [nM],EC50 (human CCK-B R; Table 3) [nM],SMILES
0.046,12,,"CC[C@H](C)[C@H](NC(=O)[C@H](Cc1ccccc1)NC(=O)[C@H](CC(C)C)NC(=O)[C@H](CCCNC(=N)N)NC(=O)[C@@H](NC(=O)[C@H](C)NC(=O)[C@H](CCC(=O)O)NC(=O)[C@H](CCC(=O)O)NC(=O)[C@H](CCC(=O)O)NC(=O)[C@H](CCSC)NC(=O)[C@H](Cc1ccc(O)cc1)NC(=O)[C@H](CCCCN)NC(=O)[C@H](CO)NC(=O)[C@H](CC(C)C)NC(=O)[C@H](CC(=O)O)NC(=O)[C@H](CO)NC(=O)[C@@H](NC(=O)[C@H](Cc1ccccc1)NC(=O)[C@@H](NC(=O)CNC(=O)[C@H](CCC(=O)O)NC(=O)CNC(=O)[C@@H](N)Cc1c[nH]cn1)[C@@H](C)O)[C@@H](C)O)C(C)C)C(=O)N[C@@H](CCC(=O)O)C(=O)N[C@@H](Cc1c[nH]c2ccccc12)C(=O)N[C@@H](CC(C)C)C(=O)N[C@@H](CCCCN)C(=O)N[C@@H](CC(N)=O)C(=O)NCCOCCOCC(=O)NCCOCCOCC(=O)N[C@@H](Cc1ccc(O)cc1)C(=O)NCC(=O)N[C@@H](Cc1c[nH]c2ccccc12)C(=O)N[C@@H](CC(C)C)C(=O)N[C@@H](CC(=O)O)C(=O)N[C@@H](Cc1ccccc1)C(N)=O [Compound 65, [Tyr13]Exendin-4(1-28)-Peg3-Peg3-[Leu4]Gastrin6] (H-HGEGTFTSDLSKYMEEEAVRLFIEWLKN[AEEA][AEEA]YGWLDF-NH2)"
,,26,"CCCCCCCCCCCCCCCC(=O)N[C@@H](CCC(=O)NCCCC[C@H](NC(=O)[C@H](C)NC(=O)[C@H](C)NC(=O)[C@H](CCC(N)=O)NC(=O)CNC(=O)[C@H](CCC(=O)O)NC(=O)[C@H](CC(C)C)NC(=O)[C@H](Cc1ccc(O)cc1)NC(=O)[C@H](CO)NC(=O)[C@H](CO)NC(=O)[C@@H](NC(=O)[C@H](CC(=O)O)NC(=O)[C@H](CO)NC(=O)[C@@H](NC(=O)[C@H](Cc1ccccc1)NC(=O)[C@@H](NC(=O)CNC(=O)[C@H](CCC(=O)O)NC(=O)[C@H](C)NC(=O)[C@@H](N)Cc1c[nH]cn1)[C@@H](C)O)[C@@H](C)O)C(C)C)C(=O)N[C@@H](CCC(=O)O)C(=O)N[C@@H](Cc1ccccc1)C(=O)N[C@H](C(=O)N[C@@H](C)C(=O)N[C@@H](Cc1c[nH]c2ccccc12)C(=O)N[C@@H](CC(C)C)C(=O)N[C@H](C(=O)N[C@@H](CCCCN)C(=O)NCC(=O)N[C@@H](CCCNC(=N)N)C(=O)NCC(=O)NCCOCCOCC(=O)NCCOCCOCC(=O)N[C@@H](Cc1ccc(O)cc1)C(=O)NCC(=O)N[C@@H](Cc1c[nH]c2ccccc12)C(=O)N[C@@H](CC(C)C)C(=O)N[C@@H](CC(=O)O)C(=O)N[C@@H](Cc1ccccc1)C(N)=O)C(C)C)[C@@H](C)CC)C(=O)O [Compound 109, [Lys(Hexadecanoyl-isoGlu)26]GLP-1(7-37)-Peg3-Peg3-[Leu4]Gastrin6]"
,,24,"CC[C@H](C)[C@H](NC(=O)[C@H](Cc1ccccc1)NC(=O)[C@H](CCC(=O)O)NC(=O)[C@H](CCCCN)NC(=O)[C@H](C)NC(=O)[C@H](C)NC(=O)[C@H](CCC(N)=O)NC(=O)CNC(=O)[C@H](CCC(=O)O)NC(=O)[C@H](CC(C)C)NC(=O)[C@H](Cc1ccc(O)cc1)NC(=O)[C@H](CO)NC(=O)[C@H](CO)NC(=O)[C@@H](NC(=O)[C@H](CC(=O)O)NC(=O)[C@H](CO)NC(=O)[C@@H](NC(=O)[C@H](Cc1ccccc1)NC(=O)[C@@H](NC(=O)CNC(=O)[C@H](CCC(=O)O)NC(=O)[C@H](C)NC(=O)[C@@H](N)Cc1c[nH]cn1)[C@@H](C)O)[C@@H](C)O)C(C)C)C(=O)N[C@@H](C)C(=O)N[C@@H](Cc1c[nH]c2ccccc12)C(=O)N[C@@H](CC(C)C)C(=O)N[C@H](C(=O)N[C@@H](CCCNC(=N)N)C(=O)NCC(=O)N[C@@H](CCCNC(=N)N)C(=O)NCC(=O)NCCOCCOCC(=O)NCCOCCOCC(=O)N[C@@H](Cc1ccc(O)cc1)C(=O)NCC(=O)N[C@@H](Cc1c[nH]c2ccccc12)C(=O)N[C@@H](CC(C)C)C(=O)N[C@@H](CC(=O)O)C(=O)N[C@@H](Cc1ccccc1)C(N)=O)C(C)C [Compound 113, [Arg34]GLP-1(7-37)-Peg3-Peg3-[Leu4]Gastrin6]"
